Test results reported in patent publication US20220119367A1, “HETEROCYCLIC COMPOUNDS AS ADENOSINE ANTAGONISTS” (Nuvation Bio Inc., priority 2019, published 2022).

Legend:
[1] = target: T1, adenosine A1 (human) membrane (Homo sapiens, UniProt P30542); test: A1 adenosine receptor radioligand binding assay ([3H] DPCPX); conditions: compound at 200 nM, radioligand [3H] DPCPX 1 nM
T1 construct: purchased PerkinElmer ES-010-M400UA
T1 sequence (P30542 1-326): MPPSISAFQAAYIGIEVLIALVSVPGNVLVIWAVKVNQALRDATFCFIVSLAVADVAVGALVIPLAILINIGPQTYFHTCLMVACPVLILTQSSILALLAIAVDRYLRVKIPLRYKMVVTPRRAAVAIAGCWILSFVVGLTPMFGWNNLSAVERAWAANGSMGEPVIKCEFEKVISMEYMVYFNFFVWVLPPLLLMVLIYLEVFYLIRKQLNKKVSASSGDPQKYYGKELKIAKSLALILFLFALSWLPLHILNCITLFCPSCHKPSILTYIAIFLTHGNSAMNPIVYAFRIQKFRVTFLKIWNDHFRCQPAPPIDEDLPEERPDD
Procedure: A second A1 adenosine receptor radioligand binding assay protocol was used. The protocol used adenosine A1 (human) membrane (PerkinElmer ES-010-M400UA) at a concentration of 2.5 μg/well/100 μl and the radioligand [3H] DPCPX (Cat No. PerkinElmer-NET974250UC) at a final concentration of 1 nM. Testing compounds were tested at a final concentration of 200 nM. CGS-15943, the reference compound, was tested in an 8-point 4-fold serial dilution, starting at a top concentration of 1 μM. 1 μl of compounds/high control/low control was transferred to the assay plate according to a plate map, followed by 100 μl of membrane stocks and 100 μl of radioligand, in assay buffer (25 mM HEPES, 5 mM MgCl2, 1 mM CaCl2, 100 mM NaCl, pH 7.4). The plate was sealed and incubated at RT for 1 hour. Unifilter-96 GF/C filter plates (Perkin Elmer Cat #6005174) were soaked with 50 μl of 0.3% PEI per well for at least 0.5 hour at room temperature. When the binding assays were completed, the reaction mixtures were filtered through GF/C plates using Perkin Elmer Filtermate Harvester, and each plate washed 4 times with cold wash buffer (25 mM HEPES, 5 mM MgCl2, 1 mM CaCl2, 100 mM NaCl, pH 7.4). The filter plates were dried for 1 hour at 50 degrees. After drying, the bottom of the filter plate wells was sealed, 50 μl of Perkin Elmer Microscint 20 cocktail was added, and the top of the filter plate was sealed. ^3H trapped on the filter was counted using Perkin Elmer MicroBeta2 Reader. The data were analyzed with GraphPad Prism 5 to obtain binding IC50 values for the reference compound. The “Inhibition [% Control]” was calculated using the equation: % Inh =(1−Background subtracted Assay value/Background subtracted HC value)*100, where HC is high control.

[2] = target: T2, HEK-293 cells expressing human recombinant adenosine A2A receptor (Homo sapiens, UniProt P29274); test: cAMP assay (Assay 2), A2A receptor; type: cell-based; conditions: HEK-293 cells expressing human A2A receptor
T2 construct: expressed in transfected cells; host or cells: HEK-293
T2 sequence (P29274 whole entry): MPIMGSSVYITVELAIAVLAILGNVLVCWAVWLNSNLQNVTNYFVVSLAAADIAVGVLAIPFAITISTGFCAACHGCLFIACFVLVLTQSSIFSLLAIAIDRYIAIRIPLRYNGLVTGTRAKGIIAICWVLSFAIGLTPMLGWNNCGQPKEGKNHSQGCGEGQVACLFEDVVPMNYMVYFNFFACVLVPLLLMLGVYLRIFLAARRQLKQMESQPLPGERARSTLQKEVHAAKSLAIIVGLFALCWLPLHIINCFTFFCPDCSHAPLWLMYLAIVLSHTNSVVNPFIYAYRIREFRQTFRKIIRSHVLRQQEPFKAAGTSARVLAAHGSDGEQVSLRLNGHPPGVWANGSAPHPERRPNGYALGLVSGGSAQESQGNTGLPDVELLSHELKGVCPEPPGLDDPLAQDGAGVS
Procedure: (§1) The functional activity of compounds was tested using Assay 2 below, to detect the presence of cAMP. Assay 1 is an alternative assay for this purpose. Activation of G-protein coupled receptors (such as A2A) results in activation of adenylyl cyclase which converts ATP into cAMP which is used as a downstream signaling molecule. Molecules which act as GPCR (or specifically A2A receptor) antagonists cause a decrease in intracellular cAMP concentration.
(§2) Assay 2 (Table B2): This assay used HEK-293 cells expressing human recombinant adenosine A2A receptor (or, alternatively, A1 receptor) that were grown prior to the test in media without antibiotic. 100 nL of test articles at 100× of final concentration were transferred to assay plate by Echo. Cells were washed twice with 5 mL of PBS and 10 μL of cells were mixed with 5 mL PBS. After aspirating the PBS and adding 1.5 mL versine, cells were incubated at 37° C. for 2-5 min. After centrifugation, 4 mL of medium was added and adjusted cell density to 5,000 cells/well with Stimulation Buffer. 10 μL of cells were aliquoted to the assay plate, centrifuged at 1000 rpm for 1 minute, and incubated for 60 minutes at room temperature. 5 μL 4× Eu-cAMP tracer solution and 5 μL 4× Ulight™-anti-cAMP solution were added to assay plate, followed by centrifugation and 60-minute incubation at room temperature. Plates were read on EnVision.

[3] = target: T3, HEK-293 cells expressing human recombinant A1 receptor (Homo sapiens, UniProt P30542); test: cAMP assay (Assay 2), A1 receptor; type: cell-based; conditions: HEK-293 cells expressing A1 receptor
T3 construct: expressed in transfected cells; host or cells: HEK-293
T3 sequence (P30542 1-326): T1 sequence (P30542 1-326)
Procedure: as §1, §2

[4] = target: T4, adenosine A2a (human) membrane (Homo sapiens, UniProt P29274); test: A2A adenosine receptor radioligand binding assay ([3H] CGS-21680); conditions: radioligand [3H] CGS-21680 6 nM
T4 construct: purchased PerkinElmer RBHA2AM400UA
T4 sequence (P29274 whole entry): as above
Procedure: A second A2A adenosine receptor radioligand binding assay protocol was used. The protocol used adenosine A2a (human) membrane (PerkinElmer RBHA2AM400UA) at a concentration of 5 μg/well/100 μl and the radioligand [3H] CGS-21680 (Cat No. PerkinElmer-NET1021250UC) at a final concentration of 6 nM. Testing compounds were diluted with DMSO to make 8-point 4-fold serial dilution, starting at 0.2 mM. CGS-15943 was the reference compound. 1 μl of compounds/high control/low control was transferred to the assay plate according to a plate map, followed by 100 μl of membrane stocks and 100 μl of radioligand, in assay buffer (50 mM Tris-HCl, 10 mM MgCl2, 1 mM EDTA, pH 7.4). The plate was sealed and incubated at RT for 2 hours. Unifilter-96 GF/C filter plates (Perkin Elmer Cat #6005174) were soaked with 50 μl of 0.3% PEI per well for at least 0.5 hour at room temperature. When the binding assays were completed, the reaction mixtures were filtered through GF/C plates using Perkin Elmer Filtermate Harvester, and each plate washed 4 times with cold wash buffer (50 mM Tris-HCl, 154 mM NaCl, pH 7.4). The filter plates were dried for 1 hour at 50 degrees. After drying, the bottom of the filter plate wells was sealed, 50 μl of Perkin Elmer Microscint 20 cocktail was added, and the top of the filter plate was sealed. ^3H trapped on the filter was counted using Perkin Elmer MicroBeta2 Reader. The data were analyzed with GraphPad Prism 5 to obtain binding IC50 values. The “Inhibition [% Control]” was calculated using the equation: % Inh=(1−Background subtracted Assay value/Background subtracted HC value)*100, where HC is high control.

inhibition at 0.2 µM [1] [%]	IC50 [2] [nM]	IC50 [3] [nM]	IC50 [4] [nM]	Compound
49	–	–	105	C[C@H](c1ccccn1)N(C)C(=O)c1nc(-c2ccc3ncccc3c2)c(-c2ccccc2)nc1N [compound 119, (R)-3-amino-N-methyl-5-phenyl-N-(1-(pyridin-2-yl)ethyl)-6-(quinolin-6-yl)pyrazine-2-carboxamide]
90	–	–	65	C[C@@H](c1ccccn1)N(C)C(=O)c1nc(-c2ccc3ncccc3c2)c(-c2ccccc2)nc1N [compound 120, (S)-3-amino-N-methyl-5-phenyl-N-(1-(pyridin-2-yl)ethyl)-6-(quinolin-6-yl)pyrazine-2-carboxamide]
68	–	–	2.1	CC(NC(=O)c1nc(-c2ccc3ncccc3c2)c(-c2ccccc2)nc1N)c1ccccc1 (stereo not drawn) [compound 121, 3-amino-5-phenyl-N-(1-phenylethyl)-6-(quinolin-6-yl)pyrazine-2-carboxamide]

Further lines, the molecule ahead of its results:

Compound	inhibition at 0.2 µM [1] [%]	IC50 [2] [nM]	IC50 [3] [nM]	IC50 [4] [nM]
CC(C)(O)c1cccc(COc2nc(-c3cc(Cl)c4ncccc4c3)c(-c3ccc(F)cc3)nc2N)n1 [Compound No. 58, 2-(6-(((3-amino-6-(8-chloroquinolin-6-yl)-5-(4-fluorophenyl)pyrazin-2-yl)oxy)methyl)pyridin-2-yl)propan-2-ol]	85	18.4	92.7	–
Cc1ccn(-c2nc(N)c(OCc3cccc(C(C)(C)O)n3)nc2-c2cc(Cl)c3ncccc3c2)n1 [compound 1, 2-(6-(((3-amino-6-(8-chloroquinolin-6-yl)-5-(3-methyl-1H-pyrazol-1-yl)pyrazin-2-yl)oxy)methyl)pyridin-2-yl)propan-2-ol]	–	164	–	–
CC(C)(O)c1cccc(COc2nc(-c3ccc4ncccc4c3)c(-c3ccccc3)nc2N)n1 [compound 2, 2-(6-(((3-amino-5-phenyl-6-(quinolin-6-yl)pyrazin-2-yl)oxy)methyl)pyridin-2-yl)propan-2-ol]	–	15.1	32.3	–
CC(C)(O)c1cccc(Cn2cc(-c3nc(-c4ccc5ncccc5c4)c(-c4ccccc4)nc3N)nn2)n1 [compound 102, 2-(6-((4-(3-amino-5-phenyl-6-(quinolin-6-yl)pyrazin-2-yl)-1H-1,2,3-triazol-1-yl)methyl)pyridin-2-yl)propan-2-ol]	97	19.6	8.7	–
